The text below walks through data of patent US12331018B2, “Pyrrolidine orexin receptor agonists” (Merck Sharp & Dohme LLC, priority 2019, dated 2025).

The test has as its target T1, human OX2R (Homo sapiens, UniProt O43614).
T1 construct: expressed in transfected cells; host or cells: CHO (Chinese hamster ovary) cells, grown under G418 selection
T1 sequence (O43614 1-444): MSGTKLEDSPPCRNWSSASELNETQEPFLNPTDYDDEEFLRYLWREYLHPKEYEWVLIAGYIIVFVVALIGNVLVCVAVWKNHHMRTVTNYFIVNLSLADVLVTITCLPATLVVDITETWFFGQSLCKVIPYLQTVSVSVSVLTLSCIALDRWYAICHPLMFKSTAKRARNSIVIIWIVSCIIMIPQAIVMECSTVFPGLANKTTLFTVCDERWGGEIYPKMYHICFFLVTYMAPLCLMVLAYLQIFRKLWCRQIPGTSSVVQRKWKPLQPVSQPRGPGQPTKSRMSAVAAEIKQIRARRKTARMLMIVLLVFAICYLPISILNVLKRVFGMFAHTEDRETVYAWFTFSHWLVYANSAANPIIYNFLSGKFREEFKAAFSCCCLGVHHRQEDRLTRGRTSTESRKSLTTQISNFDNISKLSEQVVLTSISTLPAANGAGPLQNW
Put plainly: IPOne (IP-1 accumulation) assay in CHO cells expressing human OX2R. It counts as cell-based. The note with it: for Emax, % of reference agonist: OX2R, percentage of sample raw value/mean max effect (reference compound at 1 uM with 100% activity). The source says:
The utility of the compounds in accordance with the present invention as orexin receptor OX1R and/or OX2R agonists may be readily determined without undue experimentation by methodology well known in the art. Both the OX1R and/or OX2R G-coupled protein receptors (GPCRs) couple through the Gaq signaling pathway, which ultimately promotes calcium mobilization via inositol triphosphate (IP3) production. The half-life of IP-3 is relatively short, being rapidly metabolized to inositol monophosphate (IP-1), which can be readily detected using a commercially available assay kit (IP-One; Cisbio; cat #621PAPEC) coupled with a cell line expressing the target receptor(s) of interest. The utility of the compounds in accordance with the present invention as orexin receptor OX1R and/or OX2R agonists may be determined utilizing this assay.
In a typical experiment, the OX1 and OX2 receptor agonist activity is determined in accordance with the following general experimental method. Chinese hamster ovary (CHO) cells expressing human OX1R and/or the human OX2R were grown in Iscove's modified DMEM containing glutaMAX™, 1% G418, 100 U/mL penicillin, 100 μg/mL streptomycin and 10% heat-inactivated qualified fetal bovine serum (FBS). The OX2R cells were seeded at 10,000 cells/well/50 μL and the OX1R cells were seeded at 20,000 cells/well/50 μL into 384-well white tissue culture plates (Greiner; cat #781080). All cell/media reagents were from GIBCO-Invitrogen Corp. The seeded cell plate(s) were incubated at 37° C. with 5% CO2 and 85% humidity for 20-24 hours. On the day of the assay, assay-ready compound plates were prepared using an acoustic liquid handler (ECHO; Labcyte), which dispensed sufficient volume of test compound stock (10 mM in DMSO) or 100% DMSO to prepare 10 point, ½-log dilutions in a final volume of 202.5 nL/well in all test wells of a 384-well diamond plate (Labcyte). Following completion of assay-ready plates, importantly, the next three steps were performed with minimal delay: 1) 20 μl of 1× stimulation buffer was added to the compound plate using a Multidrop Combi (small cassette, Thermo Fisher Scientific cat #24073290); 2) culture medium was removed from the cell plate using the Bluewasher plate washer (gentle spin; BlueCatBio); 3) 14 μl of compound/stimulation buffer mixture was added to the cell plate using a Bravo liquid handler (Agilent) prior to incubating cell plates at 37° C. with 5% CO2 and 85% humidity for 1 or 2 hours (OX1R and OX2R, respectively). During this incubation, IP-one detection reagents were prepared (38:1:1 lysis buffer:D2:AB-cryptate reagents). Six μL of mixed detection reagents were added to the cell plate using a Multidrop Combi (small cassette, Thermo Fisher Scientific cat #24073290) and incubated 60 minutes at room temperature in the dark. Fluorescence signal was detected using an Envision plate reader (Perkin Elmer) [LANCE/DELFIA Dual Enh (Em: APC 665; Ex: Cy5 620)].
For each compound, data were fit to a four parameter logistic fit (ActivityBase software) and the EC50 was reported as the inflection point of the resulting curve. Percent effect for each test compound was determined as the percentage of sample raw value/mean max effect, where the mean max effect was derived from the mean raw value of 32 control wells per assay plate (using Orexin A (cat #003-30) at 1 μM for human OX1R and a reference compound at 1 uM with 100% activity previously established by comparison to Orexin A for human OX2R). The intrinsic orexin receptor agonist activity of a compound which may be used in the present invention may be determined by these assays.

SMILES strings stand for the structures. Where two headings read alike, the source gives them in different places.

Consider `CCNC(=O)N1CC[C@H](NS(C)(=O)=O)[C@@H]1COC1CCC(C(C)C)CC1` (stereo partly drawn) [Example 28, (2R,3S)—N-ethyl-2-(((4-isopropylcyclohexyl)oxy)methyl)-3-(methylsulfonamido)pyrrolidine-1-carboxamide], for which the EC50 (as a rule, the concentration at which the effect is half-maximal) is 57.8 nM and the “Emax, % of reference agonist” value is 99.8%.

Turning to `CC(C)C1CCC(OC[C@H]2[C@@H](NS(C)(=O)=O)CCN2C(=O)C2CC2)CC1` (stereo partly drawn) [Example 30, N-((2R,3S)-1-(cyclopropanecarbonyl)-2-(((4-isopropylcyclohexyl)oxy)methyl)pyrrolidin-3-yl)methanesulfonamide], the “Emax, % of reference agonist” value was 100.6%. Further, the EC50 (CHO cells expressing human OX2R, IP-One assay, 2 hours incubation, four parameter logistic fit, read-out: OX2R Potency, EC50) was 433 nM.
